Laboratory results published in US20030190344A1, “Animal feed or feed additive as performance enhancer or appetite enhancer for live stock” (priority 2000, published 2003).

System: aromatic aminoacid-decarboxylase
Assay: Blockade of aromatic aminoacid-decarboxylase activity
Assay type: biochemical
Description: This blockade of the aromatic aminoacid-decarboxylase is irreversible and thus is of special interest since it is maintained as long as the enzyme molecules are in the effective range of the benzophenanthridine alkaloids. Sanguinarine and chelerythrine, representative of the benzophenanthridine alkaloids, have an aromatic structure which is similar to that of the aromatic amino acids. The enzyme “aromatic aminoacid-decarboxylase” confuses the ultimate structure of the benzophenanthridine alkaloid with the ring structure of the aromatic amino acid and fits it rather than the amino acids at its active center.

COc1ccc2c(c[n+](C)c3c4cc5c(cc4ccc23)OCO5)c1OC [chelerythrine]
block the activity of the aromatic aminoacid-decarboxylase: 92% | reversibility of blockade of the aromatic aminoacid-decarboxylase: irreversible
